Experimental data taken from article PMC10795032 (ACS Omega, 2024).

What was measured:
Format in all cases: cell-based, human
U87-MG cells [1] = conditions: 5 μM with 20 μM CQ, 24 h, CCK-8
U87-MG cells [2] = experiment: Annexin V-FITC/PI flow cytometry apoptosis assay; conditions: 5 μM, 24 h
cleaved caspase-3 = experiment: Western blot, cleaved caspase-3; conditions: U87-MG, 5 μM, 24 h
LC3 = experiment: Western blot, LC3-I to LC3-II conversion; conditions: U87-MG, 24 h
p62/SQSTM1 = experiment: Western blot, autophagic flux marker p62/SQSTM1; conditions: U87-MG, 5 μM, 24 h
pAKT = experiment: Western blot, phosphorylation of AKT; conditions: U87-MG, 5 μM, 24 h
p-mTOR = experiment: Western blot, phosphorylation of mTOR; conditions: U87-MG, 5 μM, 24 h

## COc1cc2ncnc(Nc3ccc(F)c(Cl)c3)c2cc1OCCCN1CCOCC1 [Gefitinib]
U87-MG cells [1]
  increase in cell death along with CQ compared with treated alone: 2.09%
U87-MG cells [2]
  apoptosis rate (Annexin-V-positive cells): 44.16%
Cleaved caspase-3
  cleaved caspase-3 expression: cleaved caspase-3 expression can be seen
LC3; 5 μM with 20 μM CQ
  conversion of LC3-II on co-incubation with CQ: significantly increases
LC3; 5 μM
  conversion of LC3-I to LC3-II: able to induce autophagy
p62/SQSTM1
  expression of p62: partially downregulate
pAKT
  phosphorylation of AKT: potent in inhibiting
p-mTOR
  phosphorylation of mTOR: potent in inhibiting
